From patent US11103497B2, “Treatment of imatinib resistant leukemia” (Wyeth LLC, priority 2007, dated 2021)

settings: not given

| melting point | Structure (SMILES) |
| --- | --- |
| 174 to 176 °C | CCOc1cc2c(Nc3cc(OC)c(Cl)cc3Cl)c(C#N)cnc2cc1OCCC1CCN(C)CC1 [Example 15, 4-[(2,4-Dichloro-5-methoxyphenyl)amino]-6-ethoxy-7-[2-(1-methylpiperidin-4-yl)ethoxy]quinoline-3-carbonitrile] |
| 192 to 195 °C | CCN1CCC(COc2cc3ncc(C#N)c(Nc4cc(OC)c(Cl)cc4Cl)c3cc2OC)CC1 [Example 9, 4-[(2,4-Dichloro-5-methoxyphenyl)amino]-7-[(1-ethylpiperidin-4-yl)methoxy]-6-methoxyquinoline-3-carbonitrile] |
| 127 to 130 °C | CCOc1cc2c(Nc3cc(OC)c(Cl)cc3Cl)c(C#N)cnc2cc1OCCCN1CCN(CC)CC1 [Example 12, 4-[(2,4-Dichloro-5-methoxyphenyl)amino]-6-ethoxy-7-[3-(4-ethylpiperazin-1-yl)propoxy]quinoline-3-carbonitrile] |
| 165 to 167 °C | COc1cc(Nc2c(C#N)cnc3cc(OCCN4CCN(C)CC4)c(OC)cc23)c(Cl)cc1Cl [Example 4, 4-[(2,4-Dichloro-5-methoxyphenyl)amino]-6-methoxy-7-[2-(4-methyl-1-piperazinyl)ethoxy]-3-quinolinecarbonitrile] |
| 148 to 151 °C | CCOc1cc2c(Nc3cc(OC)c(Cl)cc3Cl)c(C#N)cnc2cc1OCCCC1CCN(C)CC1 [Example 13, 4-[(2,4-Dichloro-5-methoxyphenyl)amino]-6-ethoxy-7-[3-(1-methylpiperidin-4-yl)propoxy]quinoline-3-carbonitrile] |
| 141 to 143 °C | CCOc1cc2c(Nc3cc(OC)c(Cl)cc3Cl)c(C#N)cnc2cc1OCCN1CCN(C)CC1 [Example 14, 4-[(2,4-Dichloro-5-methoxyphenyl)amino]-6-ethoxy-7-[2-(4-methyl-1-piperazinyl)ethoxy]quinoline-3-carbonitrile] |
| 137 to 138 °C | CCOc1cc2c(Nc3cc(OC)c(Cl)cc3Cl)c(C#N)cnc2cc1OCCCN1CCN(C)CC1 [Example 10, 4-[(2,4-Dichloro-5-methoxyphenyl)amino]-6-ethoxy-7-[3-(4-methylpiperazin-1-yl)propoxy]quinoline-3-carbonitrile] |

settings: patients; cited from earlier work

| Structure (SMILES) | adverse effects |
| --- | --- |
| Cc1nc(Nc2ncc(C(=O)Nc3c(C)cccc3Cl)s2)cc(N2CCN(CCO)CC2)n1 [Dasatinib] | hematologic toxicity and edema |
